Experimental data taken from patent US8192962B2, “Processes for detecting toxic substances” (Daikin Industries, Ltd., priority 2001, dated 2012).

Tested on: Unknown protein yeast genes
Assay: DNA chip mRNA expression in yeast, unknown protein yeast genes (Table 1)
Assay type: cell-based, Saccharomyces cerevisiae S288C
Method in brief: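 Chemical exposure: 2 h, log-phase S. cerevisiae S288C, YPD, 25° C., dose set to inhibit growth without death. Profiling: mRNA labeled by reverse transcription with Cy3- or Cy5-dUTP, hybridized to whole-genome array. Output: fluorescence ratio against untreated culture.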

Compound: [Cl][Cd][Cl] [(2), CdCl2]
- The level of expressed mRNA in the presence of chemical substance/The level of expressed mRNA in the absence of chemical substance (yeast gene YAL053W, incubated two hours with chemical substance): 0.9
- The level of expressed mRNA in the presence of chemical substance/The level of expressed mRNA in the absence of chemical substance (yeast gene YBL048W): 7.9
- The level of expressed mRNA in the presence of chemical substance/The level of expressed mRNA in the absence of chemical substance (yeast gene YBL107C): 1.1
- The level of expressed mRNA in the presence of chemical substance/The level of expressed mRNA in the absence of chemical substance (yeast gene YDL072C, incubated two hours with chemical substance): 1.1
- The level of expressed mRNA in the presence of chemical substance/The level of expressed mRNA in the absence of chemical substance (yeast gene YDL204W, incubated two hours with chemical substance): 1.9
- The level of expressed mRNA in the presence of chemical substance/The level of expressed mRNA in the absence of chemical substance (yeast gene YDL222C, incubated two hours with chemical substance): 1.1
- The level of expressed mRNA in the presence of chemical substance/The level of expressed mRNA in the absence of chemical substance (yeast gene YDR330W, incubated two hours with chemical substance): 1.5
- The level of expressed mRNA in the presence of chemical substance/The level of expressed mRNA in the absence of chemical substance (yeast gene YDR411C, incubated two hours with chemical substance): 2.8
- The level of expressed mRNA in the presence of chemical substance/The level of expressed mRNA in the absence of chemical substance (yeast gene YDR511W, incubated two hours with chemical substance): 1.7
- The level of expressed mRNA in the presence of chemical substance/The level of expressed mRNA in the absence of chemical substance (yeast gene YDR545W, incubated two hours with chemical substance): 1.2
- The level of expressed mRNA in the presence of chemical substance/The level of expressed mRNA in the absence of chemical substance (yeast gene YEL001C, incubated two hours with chemical substance): 1.0
- The level of expressed mRNA in the presence of chemical substance/The level of expressed mRNA in the absence of chemical substance (yeast gene YER004W, incubated two hours with chemical substance): 1.5
- The level of expressed mRNA in the presence of chemical substance/The level of expressed mRNA in the absence of chemical substance (yeast gene YER035W, incubated two hours with chemical substance): 1.6
- The level of expressed mRNA in the presence of chemical substance/The level of expressed mRNA in the absence of chemical substance (yeast gene YER079W, incubated two hours with chemical substance): 1.6
- The level of expressed mRNA in the presence of chemical substance/The level of expressed mRNA in the absence of chemical substance (yeast gene YER106W, incubated two hours with chemical substance): 0.7
- The level of expressed mRNA in the presence of chemical substance/The level of expressed mRNA in the absence of chemical substance (yeast gene YER158C, incubated two hours with chemical substance): 0.9
- The level of expressed mRNA in the presence of chemical substance/The level of expressed mRNA in the absence of chemical substance (yeast gene YER163C, incubated two hours with chemical substance): 2.4
- The level of expressed mRNA in the presence of chemical substance/The level of expressed mRNA in the absence of chemical substance (yeast gene YER175C, incubated two hours with chemical substance): 1.2
- The level of expressed mRNA in the presence of chemical substance/The level of expressed mRNA in the absence of chemical substance (yeast gene YFL006W, incubated two hours with chemical substance): 2.8
- The level of expressed mRNA in the presence of chemical substance/The level of expressed mRNA in the absence of chemical substance (yeast gene YFL010C, incubated two hours with chemical substance): 4.8
- The level of expressed mRNA in the presence of chemical substance/The level of expressed mRNA in the absence of chemical substance (yeast gene YFL024C): 1.1
- The level of expressed mRNA in the presence of chemical substance/The level of expressed mRNA in the absence of chemical substance (yeast gene YFL032W, incubated two hours with chemical substance): 1.5
- The level of expressed mRNA in the presence of chemical substance/The level of expressed mRNA in the absence of chemical substance (yeast gene YGL037C, incubated two hours with chemical substance): 2.7
- The level of expressed mRNA in the presence of chemical substance/The level of expressed mRNA in the absence of chemical substance (yeast gene YGL047W, incubated two hours with chemical substance): 1.9
- The level of expressed mRNA in the presence of chemical substance/The level of expressed mRNA in the absence of chemical substance (yeast gene YGL053W, incubated two hours with chemical substance): 1.5
- The level of expressed mRNA in the presence of chemical substance/The level of expressed mRNA in the absence of chemical substance (yeast gene YGL121C): 5.0
- The level of expressed mRNA in the presence of chemical substance/The level of expressed mRNA in the absence of chemical substance (yeast gene YGL199C, incubated two hours with chemical substance): 1.7
- The level of expressed mRNA in the presence of chemical substance/The level of expressed mRNA in the absence of chemical substance (yeast gene YGR101W, incubated two hours with chemical substance): 1.3
- The level of expressed mRNA in the presence of chemical substance/The level of expressed mRNA in the absence of chemical substance (yeast gene YGR110W): 3.1
- The level of expressed mRNA in the presence of chemical substance/The level of expressed mRNA in the absence of chemical substance (yeast gene YGR130C, incubated two hours with chemical substance): 0.7
- The level of expressed mRNA in the presence of chemical substance/The level of expressed mRNA in the absence of chemical substance (yeast gene YGR154C, incubated two hours with chemical substance): 2.9
- The level of expressed mRNA in the presence of chemical substance/The level of expressed mRNA in the absence of chemical substance (yeast gene YGR221C, incubated two hours with chemical substance): 2.2
- The level of expressed mRNA in the presence of chemical substance/The level of expressed mRNA in the absence of chemical substance (yeast gene YHR138C, incubated two hours with chemical substance): 1.8
- The level of expressed mRNA in the presence of chemical substance/The level of expressed mRNA in the absence of chemical substance (yeast gene YHR199C, incubated two hours with chemical substance): 2.0
- The level of expressed mRNA in the presence of chemical substance/The level of expressed mRNA in the absence of chemical substance (yeast gene YIL023C, incubated two hours with chemical substance): 1.2
- The level of expressed mRNA in the presence of chemical substance/The level of expressed mRNA in the absence of chemical substance (yeast gene YIL041W, incubated two hours with chemical substance): 1.2
- The level of expressed mRNA in the presence of chemical substance/The level of expressed mRNA in the absence of chemical substance (yeast gene YIL087C, incubated two hours with chemical substance): 1.9
- The level of expressed mRNA in the presence of chemical substance/The level of expressed mRNA in the absence of chemical substance (yeast gene YJL057C, incubated two hours with chemical substance): 1.2
- The level of expressed mRNA in the presence of chemical substance/The level of expressed mRNA in the absence of chemical substance (yeast gene YJL066C, incubated two hours with chemical substance): 1.2
- The level of expressed mRNA in the presence of chemical substance/The level of expressed mRNA in the absence of chemical substance (yeast gene YJL082W, incubated two hours with chemical substance): 0.8
- The level of expressed mRNA in the presence of chemical substance/The level of expressed mRNA in the absence of chemical substance (yeast gene YJL151C, incubated two hours with chemical substance): 2.4
- The level of expressed mRNA in the presence of chemical substance/The level of expressed mRNA in the absence of chemical substance (yeast gene YJL152W, incubated two hours with chemical substance): 1.5
- The level of expressed mRNA in the presence of chemical substance/The level of expressed mRNA in the absence of chemical substance (yeast gene YJL161W, incubated two hours with chemical substance): 2.2
- The level of expressed mRNA in the presence of chemical substance/The level of expressed mRNA in the absence of chemical substance (yeast gene YJL171C, incubated two hours with chemical substance): 0.7
- The level of expressed mRNA in the presence of chemical substance/The level of expressed mRNA in the absence of chemical substance (yeast gene YJR008W, incubated two hours with chemical substance): 1.5
- The level of expressed mRNA in the presence of chemical substance/The level of expressed mRNA in the absence of chemical substance (yeast gene YJR054W, incubated two hours with chemical substance): 0.9
- The level of expressed mRNA in the presence of chemical substance/The level of expressed mRNA in the absence of chemical substance (yeast gene YKL071W): 3.8
- The level of expressed mRNA in the presence of chemical substance/The level of expressed mRNA in the absence of chemical substance (yeast gene YKL086W, incubated two hours with chemical substance): 1.1
- The level of expressed mRNA in the presence of chemical substance/The level of expressed mRNA in the absence of chemical substance (yeast gene YKL151C, incubated two hours with chemical substance): 3.1
- The level of expressed mRNA in the presence of chemical substance/The level of expressed mRNA in the absence of chemical substance (yeast gene YKL153W, incubated two hours with chemical substance): 1.4
